Test results as given in PubChem BioAssay (NCI).
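48-hour exposure; five concentrations; linearly interpolated endpoints. GI50 = concentration required for 50% inhibition of growth. The concentration for full growth arrest is given as TGI.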

How the values were obtained:
Assay in all cases: DTP human tumour cell line panel, 48 h
A498 renal = tested on: A498 renal
MALME-3M melanoma = tested on: MALME-3M melanoma
NCI-H522 lung = tested on: NCI-H522 lung
SW-620 colon = tested on: SW-620 colon
SK-MEL-28 melanoma = tested on: SK-MEL-28 melanoma
786-0 renal = tested on: 786-0 renal
HS 578T breast = tested on: HS 578T breast
M14 melanoma = tested on: M14 melanoma
SK-MEL-5 melanoma = tested on: SK-MEL-5 melanoma
UACC-257 melanoma = tested on: UACC-257 melanoma

SMILES	GI50 (A498 renal) [µM]	TGI (A498 renal) [µM]	GI50 (MALME-3M melanoma) [µM]	TGI (MALME-3M melanoma) [µM]	GI50 (NCI-H522 lung) [µM]	TGI (NCI-H522 lung) [µM]	GI50 (SW-620 colon) [µM]	TGI (SW-620 colon) [µM]	GI50 (SK-MEL-28 melanoma) [µM]	TGI (SK-MEL-28 melanoma) [µM]	GI50 (786-0 renal) [µM]	TGI (786-0 renal) [µM]	GI50 (HS 578T breast) [µM]	TGI (HS 578T breast) [µM]	GI50 (M14 melanoma) [µM]	TGI (M14 melanoma) [µM]	GI50 (SK-MEL-5 melanoma) [µM]	TGI (SK-MEL-5 melanoma) [µM]	GI50 (UACC-257 melanoma) [µM]	TGI (UACC-257 melanoma) [µM]
COc1cccc(Cn2cc3c(c2)-c2oncc2CC3)c1	0.239	1.19	0.915	80.1	0.326	1.89	0.319	> 100	0.746	> 100	1.98	> 100	0.249	0.886	0.374	> 48.2	0.44	3.09	4.13	> 79.7
CC(=O)NCCCCCCNC(C)=O		> 9690		7700		9120		> 10000		> 10000		> 10000		> 10000		> 10000		> 10000		> 10000
O=C(c1ccco1)c1c(C(F)(F)F)nc2cc(C(F)(F)F)ccc2[n+]1[O-]	20.5	63.8	54.2	> 100	65.8	> 100	> 100	> 100	> 100	> 100	36.7	> 100	26.7	74.9	> 100	> 100	> 100	> 100	> 100	> 100
C=C1C(=O)O[C@H]2[C@H]1[C@H](OC(=O)/C(C)=C\C)C[C@]1(CO1)[C@@H]1[C@H](OC(C)=O)C=C(C)[C@]21O		> 100		35.3		16.8		27.9		30.6		23.5		> 100		54.9		37.2		39.2
